Source: PubChem BioAssay AID1259407 (Chemical Carcinogenesis Research Information System (CCRIS), 2018)
Calls of active or inactive are those of the source. How the calls were made is not given here.

Tested on: CCRIS mutagenicity, Ames/micronucleus/aberration tests
Assay: CCRIS mutagenicity studies
[1] = Test System: AMES SALMONELLA TYPHIMURIUM, Strain/Indicator: TA97, Metabolic Activation: NONE, Method: STANDARD PLATE
[2] = Test System: AMES SALMONELLA TYPHIMURIUM, Strain/Indicator: TA98, Metabolic Activation: NONE, Method: STANDARD PLATE
[3] = Test System: AMES SALMONELLA TYPHIMURIUM, Strain/Indicator: TA98, Metabolic Activation: RAT, LIVER, S-9, AROCLOR 1254, Method: STANDARD PLATE
[4] = Test System: AMES SALMONELLA TYPHIMURIUM, Strain/Indicator: TA100, Metabolic Activation: NONE, Method: STANDARD PLATE
[5] = Test System: AMES SALMONELLA TYPHIMURIUM, Strain/Indicator: TA100, Metabolic Activation: RAT, LIVER, S-9, AROCLOR 1254, Method: STANDARD PLATE
[6] = Test System: AMES SALMONELLA TYPHIMURIUM, Strain/Indicator: TA98, Metabolic Activation: NONE, Method: PREINCUBATION
[7] = Test System: AMES SALMONELLA TYPHIMURIUM, Strain/Indicator: TA100, Metabolic Activation: NONE, Method: PREINCUBATION

## CCNc1nc(Cl)nc(NCC)n1
[1]
  mutagenic call: inactive; negative
Test System: AMES SALMONELLA TYPHIMURIUM, Strain/Indicator: TA97, Metabolic Activation: RAT, LIVER, S-9, AROCLOR 1254, Method: STANDARD PLATE
  mutagenic call: inactive; negative
[2]
  mutagenic call: inactive; negative
[3]
  mutagenic call: inactive; negative
[4]
  mutagenic call: inactive; negative
[5]
  mutagenic call: inactive; negative
Test System: AMES SALMONELLA TYPHIMURIUM, Strain/Indicator: TA102, Metabolic Activation: NONE, Method: STANDARD PLATE
  mutagenic call: inactive; negative
Test System: AMES SALMONELLA TYPHIMURIUM, Strain/Indicator: TA102, Metabolic Activation: RAT, LIVER, S-9, AROCLOR 1254, Method: STANDARD PLATE
  mutagenic call: inactive; negative

## NCc1ccc(CN)cc1
End Point: IN VITRO CHROMOSOMAL ABERRATIONS, Test System: CHL CELLS, Metabolic Activation: NONE
  mutagenic call: inactive; negative
End Point: IN VITRO CHROMOSOMAL ABERRATIONS, Test System: CHL CELLS, Metabolic Activation: RAT, LIVER, S-9, SODIUM PHENOBARBITAL AND 5,6-BENZOFLAVONE
  mutagenic call: inactive; negative
[6]
  mutagenic call: inactive; negative
Test System: AMES SALMONELLA TYPHIMURIUM, Strain/Indicator: TA98, Metabolic Activation: RAT, LIVER, S-9, PHENOBARBITAL AND BETA-NAPHTHOFLAVONE, Method: PREINCUBATION
  mutagenic call: inactive; negative
[7]
  mutagenic call: inactive; negative
Test System: AMES SALMONELLA TYPHIMURIUM, Strain/Indicator: TA100, Metabolic Activation: RAT, LIVER, S-9, PHENOBARBITAL AND BETA-NAPHTHOFLAVONE, Method: PREINCUBATION
  mutagenic call: inactive; negative
Test System: AMES SALMONELLA TYPHIMURIUM, Strain/Indicator: TA102, Metabolic Activation: NONE, Method: PREINCUBATION
  mutagenic call: inactive; negative
Test System: AMES SALMONELLA TYPHIMURIUM, Strain/Indicator: TA102, Metabolic Activation: RAT, LIVER, S-9, PHENOBARBITAL AND BETA-NAPHTHOFLAVONE, Method: PREINCUBATION
  mutagenic call: inactive; negative
Test System: AMES SALMONELLA TYPHIMURIUM, Strain/Indicator: TA1535, Metabolic Activation: NONE, Method: PREINCUBATION
  mutagenic call: inactive; negative
Test System: AMES SALMONELLA TYPHIMURIUM, Strain/Indicator: TA1535, Metabolic Activation: RAT, LIVER, S-9, PHENOBARBITAL AND BETA-NAPHTHOFLAVONE, Method: PREINCUBATION
  mutagenic call: inactive; negative
Test System: AMES SALMONELLA TYPHIMURIUM, Strain/Indicator: TA1537, Metabolic Activation: NONE, Method: PREINCUBATION
  mutagenic call: inactive; negative
Test System: AMES SALMONELLA TYPHIMURIUM, Strain/Indicator: TA1537, Metabolic Activation: RAT, LIVER, S-9, PHENOBARBITAL AND BETA-NAPHTHOFLAVONE, Method: PREINCUBATION
  mutagenic call: inactive; negative
Test System: E. COLI, Strain/Indicator: WP2UVRA/PKM101, Metabolic Activation: NONE, Method: PREINCUBATION
  mutagenic call: inactive; negative
Test System: E. COLI, Strain/Indicator: WP2UVRA/PKM101, Metabolic Activation: RAT, LIVER, S-9, PHENOBARBITAL AND BETA-NAPHTHOFLAVONE, Method: PREINCUBATION
  mutagenic call: inactive; negative
Test System: E. COLI, Strain/Indicator: WP2UVRA/PKM101, Metabolic Activation: RAT, LIVER, S-9, SODIUM PHENOBARBITAL AND 5,6-BENZOFLAVONE, Method: PREINCUBATION
  mutagenic call: inactive; negative
Test System: E. COLI, Strain/Indicator: WP2UVRA, Metabolic Activation: NONE, Method: PREINCUBATION
  mutagenic call: inactive; negative
Test System: E. COLI, Strain/Indicator: WP2UVRA, Metabolic Activation: RAT, LIVER, S-9, PHENOBARBITAL AND BETA-NAPHTHOFLAVONE, Method: PREINCUBATION
  mutagenic call: inactive; negative

## O=C1C=Cc2ccc3c4c(ccc1c24)C=CC3=O
[1]
  mutagenic call: active; positive
Test System: AMES SALMONELLA TYPHIMURIUM, Strain/Indicator: TA97, Metabolic Activation: RAT, LIVER, S-9, PCB, Method: STANDARD PLATE
  mutagenic call: active; positive
[2]
  mutagenic call: inactive; negative
Test System: AMES SALMONELLA TYPHIMURIUM, Strain/Indicator: TA98, Metabolic Activation: RAT, LIVER, S-9, PCB, Method: STANDARD PLATE
  mutagenic call: inactive; negative
[4]
  mutagenic call: inactive; negative
Test System: AMES SALMONELLA TYPHIMURIUM, Strain/Indicator: TA100, Metabolic Activation: RAT, LIVER, S-9, PCB, Method: STANDARD PLATE
  mutagenic call: inactive; negative

## Nc1c(O)cccc1[N+](=O)[O-]
[2]
  mutagenic call: inactive; negative
[3]
  mutagenic call: inactive; negative
[4]
  mutagenic call: inactive; negative
[5]
  mutagenic call: inactive; negative
Test System: AMES SALMONELLA TYPHIMURIUM, Strain/Indicator: TA1535, Metabolic Activation: NONE, Method: STANDARD PLATE
  mutagenic call: inactive; negative
Test System: AMES SALMONELLA TYPHIMURIUM, Strain/Indicator: TA1535, Metabolic Activation: RAT, LIVER, S-9, AROCLOR 1254, Method: STANDARD PLATE
  mutagenic call: inactive; negative
Test System: AMES SALMONELLA TYPHIMURIUM, Strain/Indicator: TA1537, Metabolic Activation: NONE, Method: STANDARD PLATE
  mutagenic call: inactive; negative
Test System: AMES SALMONELLA TYPHIMURIUM, Strain/Indicator: TA1537, Metabolic Activation: RAT, LIVER, S-9, AROCLOR 1254, Method: STANDARD PLATE
  mutagenic call: inactive; negative
Test System: AMES SALMONELLA TYPHIMURIUM, Strain/Indicator: TA1538, Metabolic Activation: NONE, Method: STANDARD PLATE
  mutagenic call: inactive; negative
Test System: AMES SALMONELLA TYPHIMURIUM, Strain/Indicator: TA1538, Metabolic Activation: RAT, LIVER, S-9, AROCLOR 1254, Method: STANDARD PLATE
  mutagenic call: inactive; negative

## CC(C)(Cl)OC(C)(C)Cl
Test System: AMES SALMONELLA TYPHIMURIUM, Strain/Indicator: TA100, Metabolic Activation: RAT, LIVER, S-9, AROCLOR 1254, Method: DESICCATOR
  mutagenic call: active; positive

## Cn1ccnc1N=O
[4]
  mutagenic call: active; positive

## CC(=O)OCc1c2cccc3ccc4cc5cccc6ccc1c(c65)c4c32
[2]
  mutagenic call: active; positive
[4]
  mutagenic call: inactive; negative

## C=C(C)C=O
Test System: AMES SALMONELLA TYPHIMURIUM, Strain/Indicator: TA100, Metabolic Activation: NONE, Method: MODIFIED LIQUID SUSPENSION
  mutagenic call: active; positive
[7]
  mutagenic call: active; positive
Test System: AMES SALMONELLA TYPHIMURIUM, Strain/Indicator: TA100, Metabolic Activation: RAT LIVER S-9, AROCLOR 1254, Method: PREINCUBATION
  mutagenic call: active; positive
Test System: AMES SALMONELLA TYPHIMURIUM, Strain/Indicator: TA100, Metabolic Activation: RAT, LIVER, S-9, AROCLOR 1254, Method: MODIFIED LIQUID SUSPENSION
  mutagenic call: active; positive
Test System: AMES SALMONELLA TYPHIMURIUM, Strain/Indicator: TA100, Metabolic Activation: RAT, LIVER, S-9, AROCLOR 1254, Method: PREINCUBATION
  mutagenic call: active; positive
Test System: AMES SALMONELLA TYPHIMURIUM, Strain/Indicator: TA104, Metabolic Activation: NONE, Method: PREINCUBATION
  mutagenic call: active; positive
Test System: CHINESE HAMSTER V-79, Strain/Indicator: V-79 (HPRT)/6-THIOGUANINE, Metabolic Activation: NONE
  mutagenic call: active; positive
Test System: CHINESE HAMSTER V-79, Strain/Indicator: V-79 (HPRT)/6-THIOGUANINE, Metabolic Activation: RAT LIVER S-9, AROCLOR 1254
  mutagenic call: inactive; negative

## CN(CCC#N)c1ccc(N=Nc2ccccc2)cc1
Test System: AMES SALMONELLA TYPHIMURIUM, Strain/Indicator: TA98, Metabolic Activation: RAT, LIVER, S-9, AROCLOR, Method: PREINCUBATION
  mutagenic call: active; positive

## CN1COCN(Cc2cnc(Cl)s2)/C1=N/[N+](=O)[O-]
End Point: IN VIVO MICRONUCLEUS, Test System: BONE MARROW POLYCHROMATIC ERYTHROCYTES, Species: RAT, Strain/Sex: WISTAR/FEMALE, Route: ORAL (GAVAGE)
  mutagenic call: active; positive
End Point: IN VIVO MICRONUCLEUS, Test System: POLYCHROMATIC ERYTHROCYTES FROM COLONIC CRYPT EPITHELIAL CELLS, Species: RAT, Strain/Sex: WISTAR/FEMALE, Route: ORAL (GAVAGE)
  mutagenic call: active; positive

## O=S(=O)(O)c1ccc2cc(O)c(S(=O)(=O)O)cc2c1
[6]
  mutagenic call: inactive; negative
Test System: AMES SALMONELLA TYPHIMURIUM, Strain/Indicator: TA98, Metabolic Activation: RAT, LIVER, S-9, PHENOBARBITAL, Method: PREINCUBATION
  mutagenic call: inactive; negative
[7]
  mutagenic call: inactive; negative
Test System: AMES SALMONELLA TYPHIMURIUM, Strain/Indicator: TA100, Metabolic Activation: RAT, LIVER, S-9, PHENOBARBITAL, Method: PREINCUBATION
  mutagenic call: inactive; negative
